Results as given in patent US6376497B1, “Antifungal azole derivatives having a fluorinated vinyl group and process for preparing same” (Korea Research Institute of Chemical Technology, priority 1999, dated 2002).
In brackets after ≈: the same amount, converted by molar mass.

How the values were obtained:
Assay in all cases: In vitro antifungal activity, microbroth dilution MIC
Assay type in all cases: cell-based
[1] = tested on: Cryptococcus neoformans B. 42419; details: 4 to 48 hours; for Minimal inhibitory concentration(MIC), Cry. neoformans B. 42419: RPMI-1640, 35° C., no growth observed; for Minimal inhibitory concentration (MIC): Cry. neoformans B. 42419, RPMI-1640, 35° C.
How it was run: (§1)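 Broth microdilution adapted from NCCLS M27, in RPMI-1640 with 0.165 M MOPS, pH 7.0. Yeast or mould inoculum at 2×10^3 CFU/ml was mixed 1:1 with DMSO-derived compound solutions (200 to 0.10 μg/ml before mixing) and incubated at 35 °C for 4 to 48 h. MIC was the concentration showing no growth.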

[2] = tested on: Aspergillus niger A. 16404; details: 4 to 48 hours; for Minimal inhibitory concentration(MIC), A. niger A. 16404: RPMI-1640, 35° C., no growth observed; for Minimal inhibitory concentration (MIC): A. niger A. 16404, RPMI-1640, 35° C.
How it was run: as §1

[3] = tested on: Candida tropicalis A. 13803; details: 4 to 48 hours; for Minimal inhibitory concentration(MIC), C. tropicalis A. 13803: RPMI-1640, 35° C., no growth observed; for Minimal inhibitory concentration (MIC): C. tropicalis A. 13803, RPMI-1640, 35° C.
How it was run: as §1

Candida albicans C1-2 = details: 4 to 48 hours; for Minimal inhibitory concentration(MIC), C. albicans C1-2: RPMI-1640, 35° C., no growth observed; for Minimal inhibitory concentration (MIC): C. albicans C1-2, RPMI-1640, 35° C.
How it was run: as §1

[4] = tested on: Cryptococcus neoformans IFM. 40092; details: 4 to 48 hours; for Minimal inhibitory concentration(MIC), Cry. neoformans IFM. 40092: RPMI-1640, 35° C., no growth observed; for Minimal inhibitory concentration (MIC): Cry. neoformans IFM. 40092, RPMI-1640, 35° C.
How it was run: as §1

[5] = tested on: Trichophyton mentagrophytes A. 9129; details: 4 to 48 hours; for Minimal inhibitory concentration(MIC), T. mentagrophytes A. 9129: RPMI-1640, 35° C., no growth observed; for Minimal inhibitory concentration (MIC): T. mentagrophytes A. 9129, RPMI-1640, 35° C.
How it was run: as §1

[6] = tested on: Candida albicans A. 10231; details: 4 to 48 hours; for Minimal inhibitory concentration(MIC), C. albicans A. 10231: RPMI-1640, 35° C., no growth observed; for Minimal inhibitory concentration (MIC): C. albicans A. 10231, RPMI-1640, 35° C.
How it was run: as §1

[7] = tested on: Candida albicans IFO. 1385; details: 4 to 48 hours; for Minimal inhibitory concentration(MIC), C. albicans IFO. 1385: RPMI-1640, 35° C., no growth observed; for Minimal inhibitory concentration (MIC): C. albicans IFO. 1385, RPMI-1640, 35° C.
How it was run: as §1

[8] = tested on: Candida parapsitosis A. 7330; details: 4 to 48 hours; for Minimal inhibitory concentration(MIC), C. parapsitosis A. 7330: RPMI-1640, 35° C., no growth observed; for Minimal inhibitory concentration (MIC): C. parapsitosis A. 7330, RPMI-1640, 35° C.
How it was run: as §1

Candida krusei K. 11655 = details: 4 to 48 hours; for Minimal inhibitory concentration(MIC), C. krusei K. 11655: RPMI-1640, 35° C., no growth observed; for Minimal inhibitory concentration (MIC): C. krusei K. 11655, RPMI-1640, 35° C.
How it was run: as §1

[9] = tested on: Torulopsis glabrata B. 16205; details: 4 to 48 hours; for Minimal inhibitory concentration(MIC), T. glabrata B. 16205: RPMI-1640, 35° C., no growth observed; for Minimal inhibitory concentration (MIC): T. glabrata B. 16205, RPMI-1640, 35° C.
How it was run: as §1

[10] = tested on: Aspergillus furnigatus B. 19119; details: 4 to 48 hours; for Minimal inhibitory concentration(MIC), A furnigatus B. 19119: RPMI-1640, 35° C., no growth observed; for Minimal inhibitory concentration (MIC): A furnigatus B. 19119, RPMI-1640, 35° C.
How it was run: as §1

[11] = tested on: Cryptococcus neoformans A. 34144; details: 4 to 48 hours; for Minimal inhibitory concentration(MIC), Cry. neoformans A. 34144: RPMI-1640, 35° C., no growth observed; for Minimal inhibitory concentration (MIC): Cry. neoformans A. 34144, RPMI-1640, 35° C.
How it was run: as §1

[12] = tested on: Candida pseudotropicalis K. 11658; details: 4 to 48 hours; for Minimal inhibitory concentration(MIC), C. pseudotropicalis K. 11658: RPMI-1640, 35° C., no growth observed; for Minimal inhibitory concentration (MIC): C. pseudotropicalis K. 11658, RPMI-1640, 35° C.
How it was run: as §1

[13] = tested on: Trichophyton mentagrophytes B. 32663; details: 4 to 48 hours; for Minimal inhibitory concentration(MIC), T. mentagrophytes B. 32663: RPMI-1640, 35° C., no growth observed; for Minimal inhibitory concentration (MIC): T. mentagrophytes B. 32663, RPMI-1640, 35° C.
How it was run: as §1

Row | Compound | Minimal inhibitory concentration(MIC), Cry. neoformans B. 42419 [1] [µg/mL] | Minimal inhibitory concentration(MIC), A. niger A. 16404 [2] [µg/mL] | Minimal inhibitory concentration(MIC), C. tropicalis A. 13803 [3] [µg/mL] | Minimal inhibitory concentration(MIC), C. albicans C1-2 (Candida albicans C1-2) [µg/mL] | Minimal inhibitory concentration(MIC), Cry. neoformans IFM. 40092 [4] [µg/mL] | Minimal inhibitory concentration(MIC), T. mentagrophytes A. 9129 [5] [µg/mL] | Minimal inhibitory concentration(MIC), C. albicans A. 10231 [6] [µg/mL] | Minimal inhibitory concentration(MIC), C. albicans IFO. 1385 [7] [µg/mL] | Minimal inhibitory concentration(MIC), C. parapsitosis A. 7330 [8] [µg/mL] | Minimal inhibitory concentration(MIC), C. krusei K. 11655 (Candida krusei K. 11655) [µg/mL] | Minimal inhibitory concentration(MIC), T. glabrata B. 16205 [9] [µg/mL] | Minimal inhibitory concentration(MIC), A furnigatus B. 19119 [10] [µg/mL] | Minimal inhibitory concentration(MIC), Cry. neoformans A. 34144 [11] [µg/mL] | Minimal inhibitory concentration(MIC), C. pseudotropicalis K. 11658 [12] [µg/mL] | Minimal inhibitory concentration(MIC), T. mentagrophytes B. 32663 [13] [µg/mL] | Minimal inhibitory concentration (MIC) [1] [µg/mL] | Minimal inhibitory concentration (MIC) [2] [µg/mL] | Minimal inhibitory concentration (MIC) [3] [µg/mL] | Minimal inhibitory concentration (MIC) (Candida albicans C1-2) [µg/mL] | Minimal inhibitory concentration (MIC) [4] [µg/mL] | further results
1 | Cc1cccc(C(=C(F)Oc2ccc(OCC3COC(Cn4ccnc4)(c4ccc(F)cc4F)O3)cc2)C(F)(F)F)c1 (mixture of isomers) [Ex. 107] | 3.13 | >100 | >100 | 50.0 | 0.39 | 12.5 | 100 | 3.13 | >100 | >100 | 100 | >100 | 1.56 | 100 | 3.13 | – | – | – | – | – | –
2 | CC(C)Oc1cccc(C=C(F)OCC2COC(Cn3ccnc3)(c3ccc(Cl)cc3Cl)O2)c1 (stereo not drawn) [Ex. 11] | – | – | – | – | – | – | – | – | – | – | – | – | – | – | – | 1.56 (≈ 3.07 µM) | 50.0 (≈ 98.5 µM) | 50.0 (≈ 98.5 µM) | 25.0 (≈ 49.3 µM) | 0.39 (≈ 0.769 µM) | Minimal inhibitory concentration (MIC) [5]: 12.5 µg/mL (≈ 24.6 µM); Minimal inhibitory concentration (MIC) [6]: 25.0 µg/mL (≈ 49.3 µM); Minimal inhibitory concentration (MIC) [7]: 1.56 µg/mL (≈ 3.07 µM); Minimal inhibitory concentration (MIC) [8]: 6.25 µg/mL (≈ 12.3 µM); Minimal inhibitory concentration (MIC) (Candida krusei K. 11655): 12.5 µg/mL (≈ 24.6 µM); Minimal inhibitory concentration (MIC) [9]: 12.5 µg/mL (≈ 24.6 µM); Minimal inhibitory concentration (MIC) [10]: 12.5 µg/mL (≈ 24.6 µM); Minimal inhibitory concentration (MIC) [11]: 1.56 µg/mL (≈ 3.07 µM); Minimal inhibitory concentration (MIC) [12]: 3.13 µg/mL (≈ 6.17 µM); Minimal inhibitory concentration (MIC) [13]: 1.56 µg/mL (≈ 3.07 µM)
3 | COc1ccc(C=C(F)Oc2ccc(OCC3COC(Cn4ccnc4)(c4ccc(F)cc4F)O3)cc2)cc1 (mixture of isomers) [Ex. 105] | 12.5 | >100 | >100 | 100 | 1.56 | 100 | 50.0 | 6.25 | >100 | >100 | >100 | >100 | 6.25 | >100 | 100 | – | – | – | – | – | –
4 | Cc1ccc(C(=C(F)OCC2COC(Cn3ccnc3)(c3ccc(Cl)cc3Cl)O2)C(F)(F)F)cc1 (stereo not drawn) [Ex. 21] | – | – | – | – | – | – | – | – | – | – | – | – | – | – | – | 1.56 (≈ 2.94 µM) | 100 (≈ 188 µM) | 25.0 (≈ 47.1 µM) | 6.25 (≈ 11.8 µM) | 0.39 (≈ 0.734 µM) | Minimal inhibitory concentration (MIC) [5]: 12.5 µg/mL (≈ 23.5 µM); Minimal inhibitory concentration (MIC) [6]: 6.25 µg/mL (≈ 11.8 µM); Minimal inhibitory concentration (MIC) [7]: 0.78 µg/mL (≈ 1.47 µM); Minimal inhibitory concentration (MIC) [8]: >100 µg/mL; Minimal inhibitory concentration (MIC) (Candida krusei K. 11655): >100 µg/mL; Minimal inhibitory concentration (MIC) [9]: 12.5 µg/mL (≈ 23.5 µM); Minimal inhibitory concentration (MIC) [10]: 50.0 µg/mL (≈ 94.1 µM); Minimal inhibitory concentration (MIC) [11]: 0.78 µg/mL (≈ 1.47 µM); Minimal inhibitory concentration (MIC) [12]: 100 µg/mL (≈ 188 µM); Minimal inhibitory concentration (MIC) [13]: 6.25 µg/mL (≈ 11.8 µM)
